Data published in patent publication US5621102A, “Process for preparing enantiomerically pure xanthine derivatives” (Cell Therapeutics, Inc., priority 1995, dated 1997).

Legend:
[1] = test system: hair follicles of nu/nu mice; assay: nude mouse hair studies, topical application; assay type: in vivo; settings: second experiment; 60% ETOH, 10% water, 30% PEG base, twice daily, 34 days
Excerpt: This example illustrates nude mouse hair studies involving topical application of CT1501R. Six to eight week old, female, nu/nu mice from Charles River Laboratories were housed at Biosupport Research Support Services (Seattle, Wash.) in autoclaved micro isolator units with hyperchlorinated autoclaved water, irradiated rodent chow and kept under a laminar flow hood. Caging was changed weekly, and water was changed twice weekly. The mice were acclimated for 5 days before beginning each study.
The first topical formulation was prepared by adding CT1501R to a heated hydrophilic ointment (USP) at a 1% concentration, and allowed to solidify.
Nude mice were painted twice daily for 16 days with the first topical formulation of CT1501R on the left flank and another compound in the same base on the right flank with sterile applicators. Mice were handled under the laminar flow hood with applicator wearing face mask and sterile gloves. After 16 days, one mouse was sacrificed by cervical dislocation and skin biopsies were taken of the treated areas of the shoulder/flank and from the non-treated area of the dorsal pelvis (rump). Specimens were placed in 10% buffered formalin solution. Biopsies were sent to a veterinary dermopathologist for histopathology. Six weeks following treatment, a second mouse was euthanatized and biopsied the same as the first. Samples were sent for histopathology.
In a second experiment, topical application of CT1501R was performed along with a commercial topical minoxidil preparation (Rogaine®, Upjohn) that is approved for a hair growth indication. Five to six week old, female, nu/nu mice from Bantin and Kingman Universal were housed at Biosupport Research Support Services (Seattle, Wash.) in autoclaved micro isolator units with hyper chlorinated autoclaved water, irradiated rodent chow and kept under a laminar flow hood. Caging was changed weekly, and water was changed twice weekly. Mice were acclimated for 7 days before beginning study, […]

smooth muscle cells = assay: smooth muscle proliferation stimulated by PDGF and IL-1; assay type: cell-based; settings: drug added two hours prior to activation
Excerpt: CT1501R and PTX were separately added to the cells two hours prior to activation with PDGF and IL-1.

[2] = test system: PBMC (peripheral blood mononuclear cells); assay: two-way mixed lymphocyte reaction (MLR); assay type: cell-based, human
Excerpt: Various in vitro assays can be used to measure effects of the inventive compounds to module immune activity and have antitumor activity using a variety of cellular types. For example, a mixed lymphocyte reaction (MLR) provides a valuable screening tool to determine biological activity of each inventive compound. In the MLR, PBMCs (peripheral blood mononuclear cells) are obtained by drawing whole blood from healthy volunteers in a heparinized container and diluted with an equal volume of hanks balanced salt solution (HBSS). This mixture is layered on a sucrose density gradient, such as a Ficoll-Hypaque® gradient (specific gravity 1.08), and centrifuged at 1000×g for 25 minutes at room temperature or cooler. PBMC are obtained from a band at a plasma-Ficoll interface, separated and washed at least twice in a saline solution, such as HBSS. Contaminating red cells are lysed, such as by ACK lysis for 10 min at 37° C., and the PBMCs are washed twice in HBSS. The pellet of purified PBMCs is resuspended in complete medium, such as RPMI 1640 plus 20% human inactivated serum. Proliferative response of PBMC to allogeneic stimulation is determined in a two-way MLR performed in a 96-well microliter plate. […] At the conclusion of the incubation tritiated thymidine is added (for example, 1 μCi/well of 40 to 60 Ci/mmole) and proliferation determined by liquid scintillation counting. […]

SMILES	hair follicles, subjective histopathological examination [1]	inhibition of smooth muscle cell proliferation (smooth muscle cells)	proliferative response of PBMC to allogeneic stimulation [2]
Nc1cc(N2CCCCC2)nc(N)[n+]1[O-] [minoxidil, reference compound]	fair response to treatment		
CC(=O)CCCCn1c(=O)c2c(ncn2C)n(C)c1=O [PTX, 1-(5-oxohexyl)-3,7-dimethylxanthine, reference compound]		inhibited smooth muscle cell proliferation at the higher doses tested	showed dose-response activity
